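Protocol summary: plate cells (96-well), add compound at 5 concentrations, incubate 48 h, interpolate endpoints linearly. The concentration for full growth arrest is given as TGI.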
Assays:
Assay in all cases: NCI tumour cell line growth inhibition, 48 h
KM20L2 colon = test system: KM20L2 colon
HCT-15 colon = test system: HCT-15 colon
SNB-78 CNS = test system: SNB-78 CNS
OVCAR-5 ovarian = test system: OVCAR-5 ovarian
SK-OV-3 ovarian = test system: SK-OV-3 ovarian
COLO 205 colon = test system: COLO 205 colon
HCT-116 colon = test system: HCT-116 colon
KM12 colon = test system: KM12 colon
SF-539 CNS = test system: SF-539 CNS
IGROV1 ovarian = test system: IGROV1 ovarian
A498 renal = test system: A498 renal
HOP-92 NSCLC = test system: HOP-92 NSCLC
LXFL 529 NSCLC = test system: LXFL 529 NSCLC
HOP-18 NSCLC = test system: HOP-18 NSCLC
UO-31 renal = test system: UO-31 renal
XF 498 CNS = test system: XF 498 CNS
A549 NSCLC = test system: A549 NSCLC
HT29 colon = test system: HT29 colon
SF-295 CNS = test system: SF-295 CNS
DMS 114 small cell lung = test system: DMS 114 small cell lung
RXF 393 renal = test system: RXF 393 renal
K-562 leukemia = test system: K-562 leukemia
RPMI-8226 leukemia = test system: RPMI-8226 leukemia
MOLT-4 leukemia = test system: MOLT-4 leukemia
NCI-H226 lung = test system: NCI-H226 lung
NCI-H522 lung = test system: NCI-H522 lung
EKVX NSCLC = test system: EKVX NSCLC
NCI-H23 lung = test system: NCI-H23 lung
HCC-2998 colon = test system: HCC-2998 colon
UACC-62 melanoma = test system: UACC-62 melanoma
SN12C renal = test system: SN12C renal
SW-620 colon = test system: SW-620 colon
CAKI-1 renal = test system: CAKI-1 renal
SNB-75 CNS = test system: SNB-75 CNS
DMS 273 small cell lung = test system: DMS 273 small cell lung
SNB-19 CNS = test system: SNB-19 CNS
U251 CNS = test system: U251 CNS
MALME-3M melanoma = test system: MALME-3M melanoma
SF-268 CNS = test system: SF-268 CNS
HL-60(TB) leukemia = test system: HL-60(TB) leukemia
ACHN renal = test system: ACHN renal
UACC-257 melanoma = test system: UACC-257 melanoma
HOP-62 NSCLC = test system: HOP-62 NSCLC
TK-10 renal = test system: TK-10 renal
NCI-H460 lung = test system: NCI-H460 lung
M14 melanoma = test system: M14 melanoma
M19-MEL melanoma = test system: M19-MEL melanoma
OVCAR-8 ovarian = test system: OVCAR-8 ovarian
SR leukemia = test system: SR leukemia
786-0 renal = test system: 786-0 renal
CCRF-CEM leukemia = test system: CCRF-CEM leukemia
SK-MEL-5 melanoma = test system: SK-MEL-5 melanoma
SK-MEL-2 melanoma = test system: SK-MEL-2 melanoma
SK-MEL-28 melanoma = test system: SK-MEL-28 melanoma
OVCAR-4 ovarian = test system: OVCAR-4 ovarian
DLD-1 colon = test system: DLD-1 colon
LOX IMVI melanoma = test system: LOX IMVI melanoma
RXF-631 renal = test system: RXF-631 renal
OVCAR-3 ovarian = test system: OVCAR-3 ovarian

Measured: TGI

COC(=O)[C@@H]1CCCCC[C@H]2C(CO)=C(C)C(=O)C12 (stereo partly specified)
not listed: LOX IMVI melanoma | RXF-631 renal | OVCAR-3 ovarian
> 100 µM: all other assays above

C/C=C/C=C/C=C/C=C/C(=O)O
not listed: HOP-92 NSCLC | XF 498 CNS | TK-10 renal | M19-MEL melanoma
> 100 µM: all other assays above
